Measurements taken from the supplement of paper PMC10307832.

How the values were obtained:
Assay in all cases: relative viability (nuclei count vs DMSO), 5 days (fraction); higher = more cells survive
[1] = compound: CCC1=CN=CN=C1N2CCN(CC2)CC3=NC4=C(N3)C=C(C=C4)C(F)(F)F + N=C(N)NC(=N)NCCc1ccccc1 [Phenformin] (partner 250 µM)
In short: (§1)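 Each reported value is a median over duplicate plates. It expresses relative viability: treated-well nuclei count divided by vehicle-well nuclei count. Lung cancer cell lines in 1536-well plates were dosed by pin tool a day after seeding, alone with one drug or with a fixed anchor-drug dose plus five library-drug doses (not always all listed) in √10 steps, and nuclei were counted after 5 days.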

[2] = compound: CCn1c(-c2nonc2N)nc2cnc(Oc3cccc(NC(=O)c4ccc(OCCN5CCOCC5)cc4)c3)cc21 + CCNC(=O)c1noc(-c2cc(C(C)C)c(O)cc2O)c1-c1ccc(CN2CCOCC2)cc1 [Luminespib] (partner 0.01 µM)
In short: as §1

[3] = compound: CCC1=CN=CN=C1N2CCN(CC2)CC3=NC4=C(N3)C=C(C=C4)C(F)(F)F + CC1(C)CCC(c2ccc(Cl)cc2)=C(CN2CCN(c3ccc(C(=O)NS(=O)(=O)c4ccc(N[C@H](CCN5CCOCC5)CSc5ccccc5)c(S(=O)(=O)C(F)(F)F)c4)cc3)CC2)C1 [Navitoclax] (partner 0.5 µM)
In short: as §1

[4] = compound: CCn1c(-c2nonc2N)nc2cnc(Oc3cccc(NC(=O)c4ccc(OCCN5CCOCC5)cc4)c3)cc21 + CC(=O)Nc1cccc(-n2c(=O)n(C3CC3)c(=O)c3c(Nc4ccc(I)cc4F)n(C)c(=O)c(C)c32)c1 [Trametinib] (partner 0.02 µM)
In short: as §1

Cell Line	relative viability ([1]; first compound 0.04 µM)	relative viability ([1]; first compound 0.1265 µM)	relative viability ([1]; first compound 0.4 µM)	relative viability ([1]; first compound 1.265 µM)	relative viability ([1]; first compound 4 µM)	relative viability ([2]; first compound 0.04 µM)	relative viability ([2]; first compound 0.1265 µM)	relative viability ([2]; first compound 0.4 µM)	relative viability ([2]; first compound 1.265 µM)	relative viability ([2]; first compound 4 µM)	relative viability ([3]; first compound 0.04 µM)	relative viability ([3]; first compound 0.1265 µM)	relative viability ([3]; first compound 0.4 µM)	relative viability ([3]; first compound 1.265 µM)	relative viability ([3]; first compound 4 µM)	relative viability ([4]; first compound 0.04 µM)	relative viability ([4]; first compound 0.1265 µM)	relative viability ([4]; first compound 0.4 µM)	relative viability ([4]; first compound 1.265 µM)	relative viability ([4]; first compound 4 µM)
ABC-1	0.262	0.238	0.223	0.243	0.268	0.633	0.617	0.367	0.254	0.248										
IA-LM											0.733	0.806	0.646	0.654	0.695					
NCI-H441	0.699	0.874	0.718	0.868	0.833	0.333	0.342		0.326	0.416	0.448	0.523	0.57	0.573	0.677	0.466	0.43	0.289	0.38	0.477
NCI-H1792	0.382	0.259	0.162		0.222	0.477	0.21	0.47	0.299	0.308	0.323	0.572	0.605	0.697	0.554	0.425	0.47	0.401	0.354	0.302
LXF-289	0.54	0.461	0.547	0.483	0.529	0.791	0.638	0.798	0.701	0.654	1.08	0.912	0.948	0.885	0.896	0.761	0.75	0.685	0.667	0.754
HCC-827	0.453	0.357	0.406		0.404	1.09	0.592	0.792	0.591	0.588	1.08	1.03	1.03	0.903	0.937	0.586	0.662	0.683	0.573	0.689
EMC-BAC-2	0.515	0.506	0.523		0.557	1.13	1.16	1.1	0.863	0.662	1.15	1.14	1.14	1.14	1.2	0.905	0.922	0.826	0.401	0.445
NCI-H596	0.729	0.66	0.67		0.79	1.28	1.1	1.01	0.979	0.97	1.01	0.899	0.933	0.944	1	0.797	0.804	0.825	0.555	0.657
NCI-H1755	0.632	0.583	0.597	0.484	0.634	0.345	0.713	0.275	0.299	0.388	1.01	0.947	0.955	0.606	0.889	0.832	0.772	0.71	0.749	0.734
NCI-H1993	0.551	0.461	0.496	0.537	0.579	0.891	0.768	1.02	0.692	0.664	1.16	0.934	0.792	0.817	0.778	0.441	0.427	0.464	0.439	0.509
SW 900	0.571	0.555	0.648	0.551	0.832	0.178	0.197	0.178	0.154	0.174						0.602	0.802	0.828	0.918	0.849
NCI-H1299											1.09	1.03	1.03	1.05	1.04					
NCI-H1563	0.713	0.639	0.662	0.661	0.689	1.23	0.514	0.482	0.466	0.48										
Calu-6											0.818	0.779	0.721	0.713	0.717					
NCI-H650	0.442	0.418	0.466	0.454	0.464	0.959	0.741	0.424	0.242	0.296						1.11	0.826	0.597	0.587	0.588
NCI-H661	0.28	0.259	0.301	0.263	0.313	0.995	0.934	0.936	0.739	0.642						0.469	0.498	0.355	0.451	0.346
NCI-H1703											0.901	1.13	1.1	0.85	1.08					
EBC-1											0.422	0.49	0.396	0.415	0.434					
NCI-H2342	0.579	0.477	0.611	0.429	0.547	0.763	0.847	0.715	0.665	0.785						0.803	0.85	0.989	0.621	0.801
NCI-H1648																0.511	0.431	0.576	0.779	0.705
NCI-H522	0.628	0.583	0.571	0.64	0.601	1.04	1.27	0.853	0.797	0.767						0.739	0.705	0.652	0.629	0.751
A549	0.178	0.143	0.191	0.161	0.164						1.14	1.13	1.12	1.16	0.945					
LCLC-103H	0.303	0.294	0.322	0.289	0.348	1.08	1.02	1.1	0.721	0.779						0.651	0.737	0.655	0.638	0.639
HCC-78	0.614	0.618	0.637	0.588	0.555						0.654	0.832	0.831	0.476	0.525	0.796	0.469		0.847	1.06
